Entries after “also recorded” stand apart in the source; their conditions may differ. Blank lines part the entries; values can stand above or below the molecule they belong to.
Experiments:
EMT6 mammary tumors = assay: Tumor immuno-profiling by flow cytometry after 7 days of treatment; assay type: in vivo, mice
Protocol: Tumor Immuno-profiling. Anti-tumor immunity was evaluated in EMT6 mammary tumors by flow cytometric immuno-profiling of tumor cells and tumor-infiltrating immune cells the tumor after 7-days of treatment with either vehicle and isotype control antibodies, single agent Compound 1 (60 mg/kg, PO, QD), anti-PD-L1 antibodies (10 mg/kg, IV, first dose, then 5 mg/kg, IP, twice per week), or the combination with of Compound 1 and anti-PD-L1.
The activation status of the TILs was assessed by assessing the expression of cytokines and effector molecules, including interferon gamma (IFNg), tumor necrosis factor alpha (TNFa) and granzyme B (GZMB) from tumor-derived T cells under restimulation conditions using PMA/ionomycin (FIG. 6A). […] There was also an increase of the frequency of CD8+ T cells expressing GZMB in tumors from mice treated with Compound 1 and anti-PD-L1 relative to the vehicle group (p=0.0137). (FIG. 6A). The polyfunctionality of tumor-infiltrating CD8^+ T cells (expressing IFNg and TNFa) was increased when mice were treated with Compound 1 alone or in combination with anti-PD-L1 antibodies relative to the vehicle group (p=0.0008 and p=0.0011, respectively). Markers of T cell activation and exhaustion were also assessed to determine if SHP2 inhibition by Compound 1 alone or in combination with anti-PD-L1 antibodies altered the phenotype of CD8+ T cells in the tumor.

EMT6 mammary carcinoma = assay: Anti-tumor efficacy, EMT6 mammary carcinoma in BALB/c mice; assay type: in vivo
Protocol: Agents. Compound 1 was formulated in 50 mM Sodium Citrate buffer, pH3.0 at a concentration of […]. Anti-PD-L1 mAbs (Mu IgG2a anti-PD-L1, hereafter referred to as anti-PD-L1) and anti-gp120 isotype control (Mu IgG1 anti-gp120; hereafter referred to as Isotype Control) were formulated as a solution in buffer of 20 mM Histidine Acetate, 240 mM Sucrose, 0.02% Tween 20™, pH 5.5. An oral-dosed vehicle control was 50 mM Sodium Citrate buffer, pH3.0.
Cell Lines. The EMT6 mammary carcinoma cell line was cultured in vitro, harvested in log-phase growth, and resuspended in Hank's Balanced Salt Solution (HBSS) containing Matrigel™ (BD Biosciences; San Jose, CA) at a 1:1 ratio by volume for in vivo inoculation. Animals were each inoculated with 0.1×10^6 cells in the mammary gland (5, left) in a volume of […].
Mice tumor models. 10.6 weeks old Balb/c mice bearing tumors in the range of 141-196 mm^3 were evenly distributed into 4 study groups of 10 mice each. The mean tumor volume across all groups was 165 mm^3 at the start of dosing. The mean starting weight was 19.94 g. All concentrations were calculated based on a mean body weight of 20 g and adjusted for 10% body weight loss or gain. Mice in the various groups received the treatment regimens described in Table 1. Mice were dosed for a total of 28 days or until euthanized at first sign of morbidity or if body weight loss was >20% of their weight at the start of administration.
The study extended beyond 28 days and following the cessation of treatment to check for the durability of response and ended at day 102 wherein remaining mice were all euthanized.
Tumor and Body Weight Measurements. Tumor volumes were measured in two perpendicular dimensions (length and width) using Ultra Cal-IV calipers (model 54-10-111; Fred V. Fowler Co.; Newton, MA) and tumor volume was calculated according to the following formula: […]
Tumors that regressed by >50% relative to their starting volume during the study were categorized as partial responders (PRs) while tumors with a final tumor volume corresponding to full regression were categorized as complete responders (CRs). Animal body weights were measured using an Adventura Pro AV812 scale (Ohaus Corporation; Pine Brook, NJ) and percent change in body weight for each group was calculated and plotted (see FIG. 4). Percent weight change was calculated using the following formula: […]
Growth analysis and group comparisons. […] Analyses and comparisons of tumor growth were performed using a package of customized functions in R (Version 3.6.2); R Foundation for Statistical Computing; Vienna, Austria, which integrates software from open source packages (e.g., lme4, mgcv, gamm4, multcomp, settings, and plyr) and several packages from tidyverse (e.g., magrittr, dplyr, tidyr, and ggplot2) (Forrest et al.; Cancer Res 2020; 80(22):5089-97). All raw tumor volume measurements from 0 (minimum) to 8 mm^3 (maximum value) were judged to reflect complete tumor absence and were converted to 8 mm^3 prior to natural log transformation. A generalized additive mixed model (GAMM) was then applied to describe the changes in transformed tumor volumes over time using regression splines with automatically generated spline bases. This approach addresses both repeated measurements from the same study subjects and moderate dropouts before the end of the study. […]

[1] = tested on: SHP2 (ERKT/2 phosphorylation at Thr202/Tyr204) in EGFR-amplified KYSE-520 cells; assay: SHP2 inhibition in cells by level of ERK phosphorylation; assay type: cell-based; details: Homo sapiens
Protocol: (§1) Compound 1 is a potent allosteric inhibitor of recombinant human SHP2, with inhibitory concentration of 50% (IC50) of 0.7 nM. It has been characterized in numerous nonclinical cancer models.

recombinant human SHP2 = molecular target: T1, recombinant human SHP2 (Homo sapiens, UniProt Q06124); assay: Inhibition of recombinant human SHP2; assay type: biochemical; details: allosteric inhibitor
T1 sequence (Q06124 1-593): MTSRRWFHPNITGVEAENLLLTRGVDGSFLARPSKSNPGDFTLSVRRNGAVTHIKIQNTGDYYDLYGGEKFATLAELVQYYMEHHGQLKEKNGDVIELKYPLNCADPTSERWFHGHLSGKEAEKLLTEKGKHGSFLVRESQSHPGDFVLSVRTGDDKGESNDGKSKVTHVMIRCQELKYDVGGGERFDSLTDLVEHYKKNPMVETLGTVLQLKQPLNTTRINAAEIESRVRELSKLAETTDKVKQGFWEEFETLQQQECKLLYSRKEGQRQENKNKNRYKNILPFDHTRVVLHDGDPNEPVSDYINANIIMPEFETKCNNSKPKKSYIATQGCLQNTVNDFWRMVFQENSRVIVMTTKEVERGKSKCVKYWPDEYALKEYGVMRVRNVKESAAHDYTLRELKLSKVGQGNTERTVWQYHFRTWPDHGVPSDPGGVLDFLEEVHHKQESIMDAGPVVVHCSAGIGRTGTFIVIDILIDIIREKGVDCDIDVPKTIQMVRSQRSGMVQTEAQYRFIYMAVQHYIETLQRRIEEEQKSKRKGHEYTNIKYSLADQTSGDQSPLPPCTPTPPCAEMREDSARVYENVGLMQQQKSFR
Protocol: as §1

[2] = tested on: panel of kinases, receptors, ion channels, and transporters; assay: Selectivity panel
Protocol: as §1

[3] = tested on: KRAS-mutant NSCLC (NCI-H358); assay: Human tumor xenograft model, KRAS-mutant NSCLC; assay type: in vivo; details: oral administration, single agent
Text: (§2) Compound 1 has also been tested for in vivo anti-tumor activity in multiple xenograft models.

[4] = Anti-proliferative effect in cancer cell lines, 2D and anchorage-independent 3D formats; assay type: cell-based; details: numerous cell lines, 2D or 3D assays; read-out: IC50, proliferation
Text: The anti-proliferative effect of Compound 1 has been assessed in multiple cancer cell lines using 2D and anchorage-independent 3D formats.

[5] = Events associated with administration of Compound 1; assay type: in vivo; details: reversible and monitorable events
Text: Risks Associated with Compound 1.

[6] = Nonclinical safety studies; assay type: in vivo
Text: Risks associated with MAPK-Pathway Class Inhibitors. Administration of MAPK-pathway inhibitors has been associated with cardiomyopathy, retinopathy, Cardiomyopathy, CPK increase, thromboembolic events, Phototoxicity, and Reproductive Toxicity.

[7] = tested on: EGFR-amplified esophageal squamous cell carcinoma (KYSE-520); assay: Human tumor xenograft model, EGFR-amplified esophageal squamous cell carcinoma; assay type: in vivo; details: oral administration, single agent
Text: as §2

Fc receptors = details: cited from earlier work
[8] = in vivo; cited from earlier work

IC50 [1]: 1.3 nM
IC50 (recombinant human SHP2): 0.7 nM
Selectivity against panel [2]: selectively inhibits SHP2
IC50 [4]: < 1 nM
Molecule: N[C@@H]1c2ccccc2OC12CCN(c1cnc3c(N4CCCc5ncccc54)n[nH]c3n1)CC2 [Compound 1, (R)-1′-(3-(3,4-dihydro-1,5-naphthyridin-1(2H)-yl)-1H-pyrazolo[3,4-b]pyrazin-6-yl)-3H-spiro[benzofuran-2,4′-piperidin]-3-amine]
IFNg expression on tumor-derived CD8+ T cells (EMT6 mammary tumors; PMA/ionomycin restimulation, vs vehicle, p=0.0002 (Compound 1), p=0.0001 (combination)): increase
TNFa expression on tumor-derived CD8+ T cells (EMT6 mammary tumors; PMA/ionomycin restimulation, vs vehicle, p=0.0016 (Compound 1), p=0.0035 (combination)): increase
MFI of PD-L1 expression on tumor cells (CD45 negative) (EMT6 mammary tumors; vs vehicle group, 7 days, p=0.0127 (Compound 1), p=0.0018 (combination)): significant increase
MFI of MHC-I expression on tumor cells (CD45 negative) (EMT6 mammary tumors; vs vehicle group, 7 days, p=0.0354 (Compound 1), p=0.0044 (combination)): significant increase
Polyfunctionality of tumor-infiltrating CD8+ T cells (co-expression of IFNg and TNFa) (EMT6 mammary tumors; vs vehicle group, p=0.0008 (Compound 1), p=0.0011 (combination)): increase
Frequency of M1 population of macrophages (EMT6 mammary tumors; vs vehicle group, p=0.0033 (Compound 1), p=0.0162 (combination)): increase
M2 population of macrophages (EMT6 mammary tumors; vs vehicle group, p=0.0036 (Compound 1), p=0.0007 (combination)): decrease
Frequency of CD8 T cell population in tumor microenvironment (EMT6 mammary tumors; vs vehicle group, p=0.0058 (Compound 1), p=0.008 (combination)): increase
Frequency of MDSCs in tumor (EMT6 mammary tumors; vs vehicle group, p=0.0058 (Compound 1), p=0.0083 (combination)): reduction; also recorded: reduced
Frequency of CD4 T cell population in tumor microenvironment (EMT6 mammary tumors; vs vehicle group, p=0.0067 (Compound 1), p=0.002 (combination)): increase
Frequency of TAMs in tumor (EMT6 mammary tumors; vs vehicle group, p=0.0072 (Compound 1), p=0.0098 (combination)): reduction; also recorded: reduced
Frequency of NK cells in tumor microenvironment (EMT6 mammary tumors; vs vehicle group, p=0.013 (Compound 1), p=0.024 (combination)): increase
Legacy % TGI (EMT6 mammary carcinoma; AUC-based, relative to vehicle controls, Compound 1 60 mg/kg PO QD, anti-PD-L1 10 mg/kg IV then 5 mg/kg IP twice weekly): 47%
Anti-tumor efficacy (in words) (EMT6 mammary carcinoma; EMT6 syngeneic tumor model, Compound 1 60 mg/kg QD): no efficacy
EOS CR (complete responders at end of study) (EMT6 mammary carcinoma; end of study day 102, after cessation of 28-day dosing, 10 mice per group): 0 (0.0%)
Growth Contrast, LN (GR) (EMT6 mammary carcinoma; relative to vehicle controls, Compound 1 60 mg/kg PO QD, anti-PD-L1 10 mg/kg IV first dose then 5 mg/kg IP twice weekly): −0.033 LN
PR (partial responders) (EMT6 mammary carcinoma; tumors regressed by >50% relative to starting volume, 10 mice per group): 0 (0.0%)
Anti-tumor efficacy, NCI-H358 xenograft [3]: significant anti-tumor efficacy
Events associated with administration [5]: Peripheral Edema, Myelosuppression (e.g., Thrombocytopenia, Anemia), Gastrointestinal Toxicities (e.g., Diarrhea, Nausea, and Vomiting), Elevation of Hepatic Transaminase, and Rash
Nonclinical toxicity findings [6]: did not show evidence of cardiac, pulmonary, renal, thromboembolic, or ophthalmic toxicities
Anti-tumor efficacy, KYSE-520 xenograft [7]: significant anti-tumor efficacy

Molecule: Atezolizumab: Fc-engineered, humanized, non-glycosylated IgG1 kappa immunoglobulin that binds PD-L1 (SEQ ID NO: 1 and 2)
Binding to Fc receptors (Fc receptors): minimal binding to Fc receptors
Tolerability [8]: generally well tolerated

From US20250312339A1, “METHODS AND COMPOSITIONS COMPRISING A SHP2 INHIBITOR AND A PD-LI BINDING ANTAGONIST” (Genentech, Inc., priority 2022, published 2025)
